Laboratory results as given in US20260365698A1, “STAPLED PEPTIDES FOR SENSITIZATION OF CANCER TO TREATMENT” (Purdue Research Foundation, priority 2022, published 2026).
Each block holds one molecule with its values, some of them ahead of it. Bridge positions count the residues as written; N and C are the ends. Square brackets hold non-standard residues; d marks the D form. Ends that are not written are not given here. Peptide text beside a SMILES is read from it. S5 = C=CCCC[C@](C)(N)C(=O)O

What was measured:
[1] = tested on: MAFG-NRF2 protein complex; conditions: cited from earlier work
[2] = tested on: non-small cell lung cancer (NSCLC) cells; conditions: cited from earlier work
Neh1 domain of NRF2 = conditions: cited from earlier work
A549 cells = experiment: Confocal microscopy of FITC-labeled peptides, cell permeability; assay type: cell-based; conditions: FITC-labeled peptide, 100 μM, 90 minutes, A549 cells
Protocol: To determine whether this was a result of poor cell permeability by compounds N2S and N3S, fluorophore labeled versions of these peptides were generated, and confocal microscopy was used to determine the abilities of these peptides to enter cells (FIG. 5C).
Briefly, A549 cells at 9.5×10^4 cells/ml in 600 μl media were plated on 10 mm glass-bottomed, 24-well plates (Chemglass Life Sciences Cell Culture Plate, 24-Well, Fisher Scientific, Waltham, MA) and cultured for overnight at 37 °C, 5% CO2, in complete growth medium (RPMI supplemented with 10% fetal calf serum, L-glutamine, and non-essential amino acids). The next day, cells were treated with fresh, pre-warmed complete growth medium supplemented with the desired FITC-labeled peptide or DMSO vehicle control at a final concentration of 100 μM FITC labeled peptide and 1% DMSO. After 90 minutes of treatment, cells were washed three times in warm PBS to remove excess peptide from the cell surface and left in modified Krebs-Ringer buffer solution [KRBH: 134 mM NaCl. 3.5 mM KCl. 1.2 mM KH2PO4, 0.5 mM MgSO4, 1.5 mM CaCl2), 5 mM NaHCO3, 10 mM HEPES (pH 7.4)] containing Hoechst stain at 1 μg/ml. Cells were immediately analyzed under a Nikon A1 confocal microscope (Resonant). The images were taken at 20× magnification with fluorescence excitation wavelengths at 409 for the Hoechst and 488 for the FITC. Images were processed using NIS-Elements AR. Dietrich et al., Cell permeable stapled peptide inhibitor of Wnt signaling that targets 0-catenin protein-protein interactions, Cell Chemical Biology 24(8): 958-968.e5 (2017); Dougherty et al., Enhancing the cell-permeability of stapled peptides with a cyclic cell-penetrating peptide, J Medicinal Chemistry 62(22): 10098 (2019).

proteinase K = experiment: Proteinase K peptide stability assay; conditions: 10 μg/mL proteinase K
Protocol: Data are from three independent replicates with standard error indicated. Scale bar indicates 50 μm.
Peptide stability assays were performed using the protocols described in Cromm et al., Protease-resistant and cell-permeable double-stapled peptides targeting the Rab8a GTPase, ACS Chemical Biology 11(8): 2375-2382 (2016). Briefly, 55 μM of peptide was incubated with 10 μg/mL proteinase K for the indicated timepoints. At the end of each time point, 50 μL of the reaction mixture were quenched in 100 μL of a 1:1 mixture acetonitrile/water+1% formic acid (FA). Samples were injected and analyzed on a Triple quad. Analysis was done using an Agilent Technologies 1200 Series attached to an Agilent Technologies 6460 Triple Quad LC/MS. Analysis was performed with a ZORBAX XDB-C18 […], 2.1×50 mm column (Agilent Technologies, Inc., Santa Clara, CA). Eluent A: H2O with 0.1% FA. Eluent B: MeCN with 0.1% FA. Purity analysis utilized the gradient as follows: (A:B, 0.3 mL/min): 95:5, 0 minutes; 95:5, 1 minute; 5:95, 5 minutes; 5:95, 8 minutes: 95:5, 8.5 minutes; 95:5, 12.5 minutes.

His-MafG = target: T1, His-MafG; experiment: SPR, pH 7.5
T1 chain: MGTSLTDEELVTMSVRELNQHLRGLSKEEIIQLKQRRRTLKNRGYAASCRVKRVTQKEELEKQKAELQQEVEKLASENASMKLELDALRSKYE

Molecule: Cc1ccccc1C(=O)N1CCc2cc(-c3nc(NC(=O)Cc4ccc5c(c4)OCO5)sc3C)ccc21 [ML-385]
binding of MAFG-NRF2 complex to regulatory DNA and downstream target gene expression [1]: inhibiting downstream target gene expression
cytotoxicity in combination with platinum-based drugs, doxorubicin or taxol [2]: substantially enhances cytotoxicity
binding to the Neh1 domain of NRF2 (Neh1 domain of NRF2): binds to the Neh1 domain of NRF2

cellular and nuclear permeability (A549 cells): good
time at which significant degradation starts (proteinase K; 55 μM peptide): 40 min
Molecule: CC(=O)N[C@@H](CC(=O)O)C(=O)N[C@@H](CC(C)C)C(=O)N[C@@H](CC(=O)O)C(=O)N[C@@H](Cc1c[nH]cn1)C(=O)N[C@@H](CC(C)C)C(=O)N[C@@]1(C)CCCC=CCCC[C@@](C)(C(=O)N[C@@H](CCCCN)C(=O)N[C@@H](CC(C)C)C(=O)N[C@@H](CC(C)C)C(=O)N[C@@H](CCCCN)C(=O)N[C@@H](CCC(=O)O)C(=O)N[C@@H](CCCCN)C(N)=O)NC(=O)[C@H](CCCCN)NC(=O)[C@H](CCC(=O)O)NC(=O)[C@H](CC(=O)O)NC1=O [N2S] (Ac-DLDHL[S5]DEK[S5]KLLKEK-NH2; staple 6-10)

accumulation in the nucleus (A549 cells): very little to no accumulation
cellular permeability (A549 cells): minimal
degradation by proteinase K (proteinase K; for up to 24 hours, 55 μM peptide): no significant degradation
Molecule: CC(=O)N[C@@H](CC(=O)O)C(=O)N[C@@H](CCC(=O)O)C(=O)N[C@@H](CCCCN)C(=O)N[C@@H](CCC(=O)O)C(=O)N[C@@H](CCCCN)C(=O)N[C@@H](CC(C)C)C(=O)N[C@@]1(C)CCCC=CCCC[C@@](C)(C(=O)N[C@@H](CCC(=O)O)C(=O)N[C@@H](CC(N)=O)C(=O)N[C@@H](CC(=O)O)C(=O)N[C@@H](CCCCN)C(=O)N[C@@H](CO)C(N)=O)NC(=O)[C@H](CCCCN)NC(=O)[C@H](CCC(=O)O)NC(=O)[C@H](CCCCN)NC1=O [N3S] (Ac-DEKEKL[S5]KEK[S5]ENDKS-NH2; staple 7-11)

degradation of unstapled peptide at shortest timepoint (proteinase K; 30 minutes): completely degraded
Molecule: Ac-DEKEKLLKEKGENDKS-NH2 [N3]

cellular permeability (A549 cells): poor
Molecule: Ac-IVELEQDLDHLKDEKE-NH2 [N1]

Kd (His-MafG): 337 nM
B1: N1S (biotin-labeled) (peptide)
chain: IVELE[S5]DLD[S5]LKDEKE
modifications: staple 6-10; also: biotin-labeled
